{
  "source": "paper PMC11385044",
  "about": "(Chemical Science, 2024)",
  "molecular_target": "ubiquitin (Ub) (Homo sapiens, UniProt P0CG47)",
  "experiment": "Fluorescence polarization",
  "type": "binding",
  "conditions": "comparison with native UIM-1 peptide 12",
  "note": "*1 amine or outer side, *2 acyl side, *3 side chain or, on linkers, in order; H or OH if unused. Where a SMILES comes first, the peptide text is derived from it. Bridges are numbered along the chain shown (N, C = ends). Roman numbers before positions name the chains, in order. The star is where a group is joined. FITC = O=C1OC2(c3ccc(O)cc3Oc3cc(O)ccc32)c2ccc(NC(=S)*)cc21; X1 = O=C(CCc1cn(CC(=O)[*:2])nn1)[*:1]",
  "data": [
    {"smiles": "CC[C@H](C)[C@H](NC(=O)[C@H](C)NC(=O)[C@@H](NC(=O)[C@H](CCC(=O)O)NC(=O)[C@@H](NC(=O)[C@H](CCC(=O)O)NC(=O)[C@H](CC(C)C)NC(=O)[C@H](CCC(=O)O)NC(=O)[C@H](CCC(=O)O)NC(=O)[C@@H](NC(=O)[C@H](CCC(=O)O)NC(=O)[C@H](CCC(N)=O)NC(=O)[C@H](CCC(=O)O)NC(=O)CCc1cn(CC(=O)N[C@@H](CCCCN)C(=O)N[C@@H](CCC(N)=O)C(=O)N[C@@H](CCCCN)C(=O)N[C@H](C(=O)N[C@@H](C)C(=O)N[C@@H](C)C(=O)N[C@@H](CC(C)C)C(=O)N[C@@H](CCCCN)C(=O)N[C@@H](CCCCNC(=S)Nc2ccc3c(c2)C(=O)OC32c3ccc(O)cc3Oc3cc(O)ccc32)C(=O)N[C@@H](CCCCN)C(=O)N[C@H](C(=O)N[C@@H](C)C(=O)N[C@@H](C)C(=O)N[C@@H](CC(C)C)C(=O)N[C@@H](CCCCN)C(=O)N[C@@H](CCC(N)=O)C(=O)N[C@@H](CCCCN)C(=O)N[C@H](C(=O)N[C@@H](CCC(N)=O)C(=O)NCC(N)=O)[C@@H](C)CC)[C@@H](C)CC)[C@@H](C)CC)nn1)[C@@H](C)CC)[C@@H](C)CC)[C@@H](C)CC)C(=O)N[C@@H](CC(C)C)C(=O)N[C@@H](CC(C)C)C(=O)N[C@@H](CO)C(=O)N[C@@H](CCC(=O)O)C(=O)N[C@H](C(=O)N[C@@H](CCC(=O)O)C(=O)NCC(N)=O)[C@@H](C)CC", "note": "[Peptide 10] (I: EQEIEELEIEIAILLSEIEG-NH2 / II: KQKIAALKK(FITC)KIAALKQKIQG-NH2; linker I:N-II:N via X1)", "values": [
      {"measurement": "Ub binding relative to native UIM-1 peptide", "result": "binds more strongly than the native UIM-1 peptide"}
    ]}
  ]
}
